# Data taken from patent US8158628B2, “Sulfonylated 1,2,3,4-tetrahydropyrrolo[1,2-a]pyrazine compounds and their use as pharmaceuticals” (Gruenenthal GmbH, priority 2009, dated 2012).
# Experiments:
# B1R of the rat = molecular target: T1, B1R of the rat (Rattus norvegicus, UniProt P97583); assay: FLIPR Ca2+ functional assay, B1R antagonism, rat B1R in CHO K1 cells; assay type: cell-based; settings: test substance 10 μM; rB1R CHO K1 cells; agonist Des-Arg9 bradykinin at EC80; % of maximum achievable inhibition
# T1 construct: expressed in transfected cells; host or cells: CHO K1 cells (Chinese hamster ovary), stably transfected
# T1 sequence (P97583 1-337): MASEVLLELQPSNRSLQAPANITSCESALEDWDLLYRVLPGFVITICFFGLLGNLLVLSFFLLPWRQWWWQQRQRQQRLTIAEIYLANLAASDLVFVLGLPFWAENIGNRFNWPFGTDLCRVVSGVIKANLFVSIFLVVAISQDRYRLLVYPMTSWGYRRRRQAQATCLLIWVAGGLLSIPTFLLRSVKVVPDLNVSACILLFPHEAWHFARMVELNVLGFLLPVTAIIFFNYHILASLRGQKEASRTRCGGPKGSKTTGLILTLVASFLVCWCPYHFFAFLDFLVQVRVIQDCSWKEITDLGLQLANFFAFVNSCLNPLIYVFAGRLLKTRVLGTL
# How it was run: (§1)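 Stably transfected CHO K1 cells loaded with Fluo-4; Ca2+ fluorescence read on FLIPR (ex 488/em 540 nm). Compound preincubated 10-20 min, then agonist at EC80: Lys-Des-Arg9 bradykinin (human) or Des-Arg9 bradykinin (rat). % inhibition vs maximal inhibition; IC50 from concentration series, n=2-3, N>=2.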
# human B1R = molecular target: T2, human B1R (Homo sapiens, UniProt P46663); assay: FLIPR Ca2+ functional assay, B1R antagonism, human B1R in CHO K1 cells; assay type: cell-based; settings: test substance 10 μM; hB1R CHO K1 cells; agonist Lys-Des-Arg9 bradykinin at EC80; % of maximum achievable inhibition
# T2 construct: expressed in transfected cells; host or cells: CHO K1 cells (Chinese hamster ovary), stably transfected
# T2 sequence (P46663 1-353): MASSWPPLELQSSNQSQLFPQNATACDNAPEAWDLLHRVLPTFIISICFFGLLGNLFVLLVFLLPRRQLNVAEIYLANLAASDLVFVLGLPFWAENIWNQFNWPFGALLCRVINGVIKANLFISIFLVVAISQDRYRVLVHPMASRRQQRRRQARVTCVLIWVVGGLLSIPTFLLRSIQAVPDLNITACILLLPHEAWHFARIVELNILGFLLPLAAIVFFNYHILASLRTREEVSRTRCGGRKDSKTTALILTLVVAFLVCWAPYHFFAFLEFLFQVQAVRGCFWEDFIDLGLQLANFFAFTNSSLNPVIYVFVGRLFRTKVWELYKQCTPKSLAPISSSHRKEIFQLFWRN
# How it was run: as §1
inhibition at 10 µM (B1R of the rat) [%],inhibition at 10 µM (human B1R) [%],SMILES
113,99.6,"COc1cc(C)c(S(=O)(=O)N2CCn3cccc3C2COCC(=O)N2CCC3(CCNC3)CC2)c(C)c1 (stereo not shown) [Example 22, 2-((2-(4-Methoxy-2,6-dimethylphenylsulfonyl)-1,2,3,4-tetrahydro-pyrrolo[1,2-a]pyrazin-1-yl)methoxy)-1-(2,8-diazaspiro[4.5]decan-8-yl)ethanone]"
86.2,99.8,"Cc1ccc(S(=O)(=O)N2CCn3cccc3C2CC(=O)NC2CCCc3cc(CN4CCN(C)CC4)ccc32)cc1 (stereo not shown) [Example 78, N-[6-[(4-Methyl-piperazin-1-yl)-methyl]-1,2,3,4-tetrahydro-naphthalen-1-yl]-2-[2-(p-tolylsulfonyl)-1,2,3,4-tetrahydro-pyrrolo[1,2-a]pyrazin-1-yl]-acetamide]"
99.3,99.5,"CN(CCC1CCN(c2ccncc2)CC1)C(=O)COCC1c2cccn2CCN1S(=O)(=O)c1ccccc1C(F)(F)F (stereo not shown) [Example 12, N-Methyl-N-(2-(1-(pyridin-4-yl)piperidin-4-yl)ethyl)-2-((2-(2-(trifluoromethyl)phenylsulfonyl)-1,2,3,4-tetrahydropyrrolo[1,2-a]pyrazin-1-yl)methoxy)acetamide]"
96.8,99.9,"Cc1ccc(S(=O)(=O)N2CCn3cccc3C2CC(=O)NC2CCc3cc(CNCc4ccccc4)ccc3C2)cc1 (stereo not shown) [Example 93, N-[6-[(Benzylamino)-methyl]-1,2,3,4-tetrahydro-naphthalen-2-yl]-2-[2-(p-tolylsulfonyl)-1,2,3,4-tetrahydro-pyrrolo[1,2-a]pyrazin-1-yl]-acetamide]"
103,100,"Cc1ccc(S(=O)(=O)N2CCn3cccc3C2CC(=O)NC2CCCc3cc(CNCc4ccccc4)ccc32)cc1Cl (stereo not shown) [Example 111, N-[6-[(Benzylamino)-methyl]-1,2,3,4-tetrahydro-naphthalen-1-yl]-2-[2-[(3-chloro-4-methyl-phenyl)sulfonyl]-1,2,3,4-tetrahydro-pyrrolo[1,2-a]pyrazin-1-yl]-acetamide]"
64,50.6,"Cc1ccc(S(=O)(=O)N2CCn3cccc3C2CC(=O)N[C@@H]2CCCc3cc(CNCC(F)(F)F)ccc32)cc1 (stereo partly drawn) [Example 45, 2-(2-Tosyl-1,2,3,4-tetrahydropyrrolo[1,2-a]pyrazin-1-yl)-N—((R)-6-((2,2,2-trifluoroethylamino)methyl)-1,2,3,4-tetrahydronaphthalen-1-yl)acetamide]"
102,99.9,"Cc1ccc(S(=O)(=O)N2CCn3cccc3C2CC(=O)NC2CCCc3cc(CNC(C)(C)C)ccc32)cc1Cl (stereo not shown) [Example 70, N-[6-[(tert-Butylamino)-methyl]-1,2,3,4-tetrahydro-naphthalen-1-yl]-2-[2-[(3-chloro-4-methyl-phenyl)sulfonyl]-1,2,3,4-tetrahydro-pyrrolo[1,2-a]pyrazin-1-yl]-acetamide]"
101,99.6,"Cc1ccc(S(=O)(=O)N2CCn3cccc3C2CC(=O)NC2CCc3cc(CNC(C)(C)C)ccc3C2)cc1 (stereo not shown) [Example 122, N-[6-[(tert-Butylamino)-methyl]-1,2,3,4-tetrahydro-naphthalen-2-yl]-2-[2-(p-tolylsulfonyl)-1,2,3,4-tetrahydro-pyrrolo[1,2-a]pyrazin-1-yl]-acetamide]"
100,99.8,"O=C(CC1c2cccn2CCN1S(=O)(=O)c1cccc(C(F)(F)F)c1)NC1CCc2cc(CN3CCCC3)ccc2C1 (stereo not shown) [Example 84, N-[6-(Pyrrolidin-1-yl-methyl)-1,2,3,4-tetrahydro-naphthalen-2-yl]-2-[2-[[3-(trifluoromethyl)phenyl]sulfonyl]-1,2,3,4-tetrahydro-pyrrolo[1,2-a]pyrazin-1-yl]-acetamide]"
103,99.5,"Cc1ccc(S(=O)(=O)N2CCn3cccc3C2CC(=O)NC2CCc3cc(CNCc4ccccc4)ccc3C2)cc1Cl (stereo not shown) [Example 51, N-[6-[(Benzylamino)-methyl]-1,2,3,4-tetrahydro-naphthalen-2-yl]-2-[2-[(3-chloro-4-methyl-phenyl)sulfonyl]-1,2,3,4-tetrahydro-pyrrolo[1,2-a]pyrazin-1-yl]-acetamide]"
101,99.8,"Cc1ccc(S(=O)(=O)N2CCn3cccc3C2CC(=O)NC2CCCc3cc(CN(C)C(C)(C)C)ccc32)cc1Cl (stereo not shown) [Example 76, N-[6-[(tert-Butyl-methyl-amino)-methyl]-1,2,3,4-tetrahydro-naphthalen-1-yl]-2-[2-[(3-chloro-4-methyl-phenyl)sulfonyl]-1,2,3,4-tetrahydro-pyrrolo[1,2-a]pyrazin-1-yl]-acetamide]"
101,99.7,"O=C(CC1c2cccn2CCN1S(=O)(=O)c1cccc(C(F)(F)F)c1)NC1CCc2cc(CN3CCOCC3)ccc2C1 (stereo not shown) [Example 67, N-[6-(Morpholin-4-yl-methyl)-1,2,3,4-tetrahydro-naphthalen-2-yl]-2-[2-[[3-(trifluoromethyl)phenyl]sulfonyl]-1,2,3,4-tetrahydro-pyrrolo[1,2-a]pyrazin-1-yl]-acetamide]"
104,99.9,"COc1ccc2cc(S(=O)(=O)N3CCn4cccc4C3CC(=O)NC3CCc4cc(CN5CCCCC5)ccc4C3)ccc2c1 (stereo not shown) [Example 8, 2-(2-(6-Methoxynaphthalen-2-ylsulfonyl)-1,2,3,4-tetrahydropyrrolo[1,2-a]pyrazin-1-yl)-N-(6-(piperidin-1-ylmethyl)-1,2,3,4-tetrahydronaphthalen-2-yl)acetamide]"
98.9,99.7,"CN1CCN(Cc2ccc3c(c2)CCC(NC(=O)CC2c4cccn4CCN2S(=O)(=O)c2cccc(C(F)(F)F)c2)C3)CC1 (stereo not shown) [Example 68, N-[6-[(4-Methyl-piperazin-1-yl)-methyl]-1,2,3,4-tetrahydro-naphthalen-2-yl]-2-[2-[[3-(trifluoromethyl)phenyl]sulfonyl]-1,2,3,4-tetrahydro-pyrrolo[1,2-a]pyrazin-1-yl]-acetamide]"
102,99.9,"COc1ccc2cc(S(=O)(=O)N3CCn4cccc4C3CC(=O)NC3CCc4cc(CN(C)C)ccc4C3)ccc2c1 (stereo not shown) [Example 96, N-[6-(Dimethylaminomethyl)-1,2,3,4-tetrahydro-naphthalen-2-yl]-2-[2-[(6-methoxy-naphthalen-2-yl)sulfonyl]-1,2,3,4-tetrahydro-pyrrolo[1,2-a]pyrazin-1-yl]-acetamide]"
100,99.5,"O=C(CC1c2cccn2CCN1S(=O)(=O)c1cccc(Cl)c1Cl)NC1CCc2cc(CN3CCCCC3)ccc2C1 (stereo not shown) [Example 28, 2-(2-(2,3-dichlorophenylsulfonyl)-1,2,3,4-tetrahydropyrrolo[1,2-a]pyrazin-1-yl)-N-(6-(piperidin-1-ylmethyl)-1,2,3,4-tetrahydronaphthalen-2-yl)acetamide]"
103,99.1,"CNCc1ccc2c(c1)CCC(NC(=O)CC1c3cccn3CCN1S(=O)(=O)c1cccc(C(F)(F)F)c1)C2 (stereo not shown) [Example 139, N-[6-(Methylamino-methyl)-1,2,3,4-tetrahydro-naphthalen-2-yl]-2-[2-[[3-(trifluoromethyl)phenyl]sulfonyl]-1,2,3,4-tetrahydro-pyrrolo[1,2-a]pyrazin-1-yl]-acetamide]"
102,99.9,"Cc1ccc(S(=O)(=O)N2CCn3cccc3C2CC(=O)NC2CCc3cc(CN(C)C(C)(C)C)ccc3C2)cc1Cl (stereo not shown) [Example 75, N-[6-[(tert-Butyl-methyl-amino)-methyl]-1,2,3,4-tetrahydro-naphthalen-2-yl]-2-[2-[(3-chloro-4-methyl-phenyl)sulfonyl]-1,2,3,4-tetrahydro-pyrrolo[1,2-a]pyrazin-1-yl]-acetamide]"
91.1,99.7,"CCC(C)NCc1ccc2c(c1)CCC(NC(=O)CC1c3cccn3CCN1S(=O)(=O)c1ccc(C)c(Cl)c1)C2 (stereo not shown) [Example 63, 2-[2-[(3-Chloro-4-methyl-phenyl)sulfonyl]-1,2,3,4-tetrahydro-pyrrolo[1,2-a]pyrazin-1-yl]-N-[6-[(1-methyl-propylamino)-methyl]-1,2,3,4-tetrahydro-naphthalen-2-yl]-acetamide]"

SMILES,inhibition at 10 µM (B1R of the rat) [%],inhibition at 10 µM (human B1R) [%]
"Cc1ccc(S(=O)(=O)N2CCn3cccc3C2CC(=O)NC2CCc3cc(CN4C5CCCC4CC5)ccc3C2)cc1Cl (stereo not shown) [Example 71, N-[6-(8-Azabicyclo[3.2.1]octan-8-yl-methyl)-1,2,3,4-tetrahydro-naphthalen-2-yl]-2-[2-[(3-chloro-4-methyl-phenyl)sulfonyl]-1,2,3,4-tetrahydro-pyrrolo[1,2-a]pyrazin-1-yl]-acetamide]",102,99.8
